Results published in US20210128609A1, “ONCOLOGY TREATMENTS USING ZINC AGENTS” (XYLONIX IP HOLDINGS PTE. LTD., priority 2018, published 2021).

Columns and labels:
Assay type in all cases: cell-based
[1] = test system: HL-60; experiment: CellTiter-Glo cell viability, HL-60
Experimental: (§1) The 50% inhibitory concentration (IC50) was determined in the cancer cell lines using CellTiter-Glo luminescent cell viability assay after incubation with different concentrations of active agents. Each cell line was treated with active Zn(II) agent, a standard chemotherapy drug as reference control, and culture medium as vehicle control. Cell Lines. All cell lines were cultured in media supplemented with 10-15% FBS, at a temperature of 37° C., 5% CO2, and 95% humidity. The reference control drug for all cell lines was cisplatin, to be used for genomic analysis. The cell lines tested, the tissue of origin are shown below in Table 1: Procedure for Determining Half Maximal Inhibition Concentration IC50 • 1. Harvested cells during the logarithmic growth period and count cell number using Count-star. • 2. Adjusted cell concentrations to 4.44×10^4 cells/mL with respective culture medium. • 3. Added 90 μL cell suspensions to two 96-well plates (plates A and B) with the final cell density of 4×10^3 cells/well. (cell concentration was adjusted according to the data base or density optimization assay.) • 4a. Next day: For the plates of TO reading: • 1) Added 10 μL culture medium to each well of plate A for TO reading. • 2) Equilibrated the plate and its content at RT for approximately 30 min. • 3) Added 50 μL CellTiter-Glo reagent to each well. • 4) Mixed content for 5 min on an orbital shaker to induce cell lysis. • 5) Allowed the plate to incubate at RT for 20 min to stabilize luminescent signal. • 6) Recorded luminescence (TO) using EnVision Multi Label Reader. • 4b. For the plates of test reading: • 1) Prepared 10× solution of Zn(II) agent test article. […] The formula for calculating surviving rate is shown below and the absolute IC50 (EC50) was calculated according to the dose-response curve generated by GraphPad Prism 5.0. • 12) The surviving rate (%)=(LumTest article−LumMedium control)/(LumNon-treated−LumMedium control)×100%.

[2] = test system: NCI-H460; experiment: CellTiter-Glo cell viability, NCI-H460
Experimental: as §1

[3] = test system: Daudi; experiment: CellTiter-Glo cell viability, Daudi
Experimental: as §1

[4] = test system: OCI-AML2; experiment: CellTiter-Glo cell viability, OCI-AML2
Experimental: as §1

[5] = test system: SU-DHL-6; experiment: CellTiter-Glo cell viability, SU-DHL-6
Experimental: as §1

[6] = test system: SK-HEP-1; experiment: CellTiter-Glo cell viability, SK-HEP-1
Experimental: as §1

[7] = test system: ML-2; experiment: CellTiter-Glo cell viability, ML-2
Experimental: as §1

[8] = test system: Raji; experiment: CellTiter-Glo cell viability, Raji
Experimental: as §1

[9] = test system: Molt-4; experiment: CellTiter-Glo cell viability, Molt-4
Experimental: as §1

[10] = test system: AsPC-1; experiment: CellTiter-Glo cell viability, AsPC-1
Experimental: as §1

[11] = test system: NAMALWA; experiment: CellTiter-Glo cell viability, NAMALWA
Experimental: as §1

[12] = test system: Calu-3; experiment: CellTiter-Glo cell viability, Calu-3
Experimental: as §1

[13] = test system: MOLM-13; experiment: CellTiter-Glo cell viability, MOLM-13
Experimental: as §1

[14] = test system: SK-OV-3; experiment: CellTiter-Glo cell viability, SK-OV-3
Experimental: (§2) The 50% inhibitory concentration (IC50) was determined in the cancer cell lines using CellTiter-Glo luminescent cell viability assay after incubation with different concentrations of active agents. Each cell line was treated with active Zn(II) agent, a standard chemotherapy drug as reference control, and culture medium as vehicle control. Cell Lines. All cell lines were cultured in media supplemented with 10-15% FBS, at a temperature of 37° C., 5% CO2, and 95% humidity. The reference control drug for all cell lines was cisplatin, to be used for genomic analysis. The cell lines tested, the tissue of origin are shown below in Table 1: Procedure for Determining Half Maximal Inhibition Concentration IC50 • 1. Harvested cells during the logarithmic growth period and count cell number using Count-star. • 2. Adjusted cell concentrations to 4.44×10^4 cells/mL with respective culture medium. • 3. Added 90 μL cell suspensions to two 96-well plates (plates A and B) with the final cell density of 4×10^3 cells/well. (cell concentration was adjusted according to the data base or density optimization assay.) • 4a. […]

[15] = test system: DU4475; experiment: CellTiter-Glo cell viability, DU4475
Experimental: as §1

[16] = test system: MCF7; experiment: CellTiter-Glo cell viability, MCF7
Experimental: as §2

[17] = test system: Jurkat clone E6-1; experiment: CellTiter-Glo cell viability, Jurkat clone E6-1
Experimental: as §1

[18] = test system: PANC-1; experiment: CellTiter-Glo cell viability, PANC-1
Experimental: as §1

[19] = test system: OVCAR-3; experiment: CellTiter-Glo cell viability, OVCAR-3
Experimental: as §1

[20] = test system: JJN-3; experiment: CellTiter-Glo cell viability, JJN-3
Experimental: as §1

[21] = test system: Kasumi-1; experiment: CellTiter-Glo cell viability, Kasumi-1
Experimental: as §1

[22] = test system: HCT-116; experiment: CellTiter-Glo cell viability, HCT-116
Experimental: as §1

[23] = test system: MOLP8; experiment: CellTiter-Glo cell viability, MOLP8
Experimental: as §1

[24] = test system: NCI-H929; experiment: CellTiter-Glo cell viability, NCI-H929
Experimental: as §1

[25] = test system: MV-4-11; experiment: CellTiter-Glo cell viability, MV-4-11
Experimental: as §1

[26] = 96 h, top conc. 50 μg/mL Zn(II) agent, 100 μM cisplatin

N.N.[Cl][Pt][Cl] [Cisplatin]
Absolute IC50 ([1]; 96 h, CellTiter-Glo): 0.29 µg/mL | % inhibition at top conc. [1, 26]: 99.99% | HillSlope ([1]; 96 h dose-response fit): −2.08 | Absolute IC50 ([2]; 96 h, CellTiter-Glo): 0.15 µg/mL | % inhibition at top conc. [2, 26]: 99.98% | HillSlope ([2]; 96 h dose-response fit): −1.63 | Absolute IC50 ([3]; 96 h, CellTiter-Glo): 0.11 µg/mL | % inhibition at top conc. [3, 26]: 99.86% | HillSlope ([3]; 96 h dose-response fit): −1.59 | Absolute IC50 ([4]; 96 h, CellTiter-Glo): 0.33 µg/mL | % inhibition at top conc. [4, 26]: 99.96% | HillSlope ([4]; 96 h dose-response fit): −2.66 | Absolute IC50 ([5]; 96 h, CellTiter-Glo): 0.38 µg/mL | % inhibition at top conc. [5, 26]: 99.99% | HillSlope ([5]; 96 h dose-response fit): −1.11 | Absolute IC50 ([6]; 96 h, CellTiter-Glo): 2.13 µg/mL | % inhibition at top conc. [6, 26]: 99.93% | HillSlope ([6]; 96 h dose-response fit): −1.28 | Absolute IC50 ([7]; 96 h, CellTiter-Glo): 0.32 µg/mL | % inhibition at top conc. [7, 26]: 100.00% | HillSlope ([7]; 96 h dose-response fit): −3.28 | Absolute IC50 ([8]; 96 h, CellTiter-Glo): 0.50 µg/mL | % inhibition at top conc. [8, 26]: 99.57% | HillSlope ([8]; 96 h dose-response fit): −2.98 | Absolute IC50 ([9]; 96 h, CellTiter-Glo): 0.10 µg/mL | % inhibition at top conc. [9, 26]: 99.99% | HillSlope ([9]; 96 h dose-response fit): −2.01 | Absolute IC50 ([10]; 96 h, CellTiter-Glo): 0.67 µg/mL | % inhibition at top conc. [10, 26]: 81.58% | HillSlope ([10]; 96 h dose-response fit): −1.47 | Absolute IC50 ([11]; 96 h, CellTiter-Glo): 0.07 µg/mL | % inhibition at top conc. [11, 26]: 99.99% | HillSlope ([11]; 96 h dose-response fit): −3.97 | Absolute IC50 ([12]; 96 h, CellTiter-Glo): 0.30 µg/mL | % inhibition at top conc. [12, 26]: 82.29% | HillSlope ([12]; 96 h dose-response fit): −1.15 | Absolute IC50 ([13]; 96 h, CellTiter-Glo): 0.16 µg/mL | % inhibition at top conc. [13, 26]: 99.98% | HillSlope ([13]; 96 h dose-response fit): −2.08 | % inhibition at top conc. [14, 26]: 98.22% | HillSlope ([14]; 96 h dose-response fit): −1.68 | Absolute IC50 ([15]; 96 h, CellTiter-Glo): 0.31 µg/mL | % inhibition at top conc. [15, 26]: 99.94% | HillSlope ([15]; 96 h dose-response fit): −2.54 | % inhibition at top conc. [16, 26]: 96.37% | HillSlope ([16]; 96 h dose-response fit): −0.60 | Absolute IC50 ([17]; 96 h, CellTiter-Glo): 0.17 µg/mL | % inhibition at top conc. [17, 26]: 99.99% | HillSlope ([17]; 96 h dose-response fit): −2.37 | Absolute IC50 ([18]; 96 h, CellTiter-Glo): 1.08 µg/mL | % inhibition at top conc. [18, 26]: 96.35% | HillSlope ([18]; 96 h dose-response fit): −0.62 | Absolute IC50 ([19]; 96 h, CellTiter-Glo): 1.08 µg/mL | % inhibition at top conc. [19, 26]: 97.70% | HillSlope ([19]; 96 h dose-response fit): −2.96 | Absolute IC50 ([20]; 96 h, CellTiter-Glo): 0.28 µg/mL | % inhibition at top conc. [20, 26]: 99.81% | HillSlope ([20]; 96 h dose-response fit): −1.17 | Absolute IC50 ([21]; 96 h, CellTiter-Glo): 0.71 µg/mL | % inhibition at top conc. [21, 26]: 99.98% | HillSlope ([21]; 96 h dose-response fit): −1.18 | Absolute IC50 ([22]; 96 h, CellTiter-Glo): 2.89 µg/mL | % inhibition at top conc. [22, 26]: 91.19% | HillSlope ([22]; 96 h dose-response fit): −2.03 | Absolute IC50 ([23]; 96 h, CellTiter-Glo): 0.16 µg/mL | % inhibition at top conc. [23, 26]: 99.98% | HillSlope ([23]; 96 h dose-response fit): −2.16 | Absolute IC50 ([24]; 96 h, CellTiter-Glo): 0.64 µg/mL | % inhibition at top conc. [24, 26]: 99.98% | HillSlope ([24]; 96 h dose-response fit): −1.83 | Absolute IC50 ([25]; 96 h, CellTiter-Glo): 0.09 µg/mL | % inhibition at top conc. [25, 26]: 99.99% | HillSlope ([25]; 96 h dose-response fit): −2.06
